Reference: patent US20250114345A1, “COMPOUNDS AND COMPOSITIONS AS CBP/P300 DEGRADERS AND USES THEREOF” (Oncopia Therapeutics, Inc. d/b/a/ SK Life Science Labs, priority 2023, published 2025)

Molecular target: T1, p300 (Homo sapiens, UniProt Q09472)
T1 construct: host or cells: A549 P300 HiBit cells
Assay: P300 degradation, HiBit technology in A549 P300 HiBit cells (2 h)
Format: cell-based
Conditions: 2 hrs post treatment; for Dmax: A549, A549 P300 HiBit cells; for DC50: A549 P300 HiBit cells
Procedure, shortened: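 Degradation potency and Dmax came from luminescence after 10 min room-temperature lysis with HiBit detection buffer. Beforehand, HiBit-tagged A549 lines received serial compound dilutions (10 mM DMSO stocks) at 37 °C, 5% CO2. CBP cells were read at 24 h, p300 cells at 2 h.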

T1 sequence (Q09472 whole entry): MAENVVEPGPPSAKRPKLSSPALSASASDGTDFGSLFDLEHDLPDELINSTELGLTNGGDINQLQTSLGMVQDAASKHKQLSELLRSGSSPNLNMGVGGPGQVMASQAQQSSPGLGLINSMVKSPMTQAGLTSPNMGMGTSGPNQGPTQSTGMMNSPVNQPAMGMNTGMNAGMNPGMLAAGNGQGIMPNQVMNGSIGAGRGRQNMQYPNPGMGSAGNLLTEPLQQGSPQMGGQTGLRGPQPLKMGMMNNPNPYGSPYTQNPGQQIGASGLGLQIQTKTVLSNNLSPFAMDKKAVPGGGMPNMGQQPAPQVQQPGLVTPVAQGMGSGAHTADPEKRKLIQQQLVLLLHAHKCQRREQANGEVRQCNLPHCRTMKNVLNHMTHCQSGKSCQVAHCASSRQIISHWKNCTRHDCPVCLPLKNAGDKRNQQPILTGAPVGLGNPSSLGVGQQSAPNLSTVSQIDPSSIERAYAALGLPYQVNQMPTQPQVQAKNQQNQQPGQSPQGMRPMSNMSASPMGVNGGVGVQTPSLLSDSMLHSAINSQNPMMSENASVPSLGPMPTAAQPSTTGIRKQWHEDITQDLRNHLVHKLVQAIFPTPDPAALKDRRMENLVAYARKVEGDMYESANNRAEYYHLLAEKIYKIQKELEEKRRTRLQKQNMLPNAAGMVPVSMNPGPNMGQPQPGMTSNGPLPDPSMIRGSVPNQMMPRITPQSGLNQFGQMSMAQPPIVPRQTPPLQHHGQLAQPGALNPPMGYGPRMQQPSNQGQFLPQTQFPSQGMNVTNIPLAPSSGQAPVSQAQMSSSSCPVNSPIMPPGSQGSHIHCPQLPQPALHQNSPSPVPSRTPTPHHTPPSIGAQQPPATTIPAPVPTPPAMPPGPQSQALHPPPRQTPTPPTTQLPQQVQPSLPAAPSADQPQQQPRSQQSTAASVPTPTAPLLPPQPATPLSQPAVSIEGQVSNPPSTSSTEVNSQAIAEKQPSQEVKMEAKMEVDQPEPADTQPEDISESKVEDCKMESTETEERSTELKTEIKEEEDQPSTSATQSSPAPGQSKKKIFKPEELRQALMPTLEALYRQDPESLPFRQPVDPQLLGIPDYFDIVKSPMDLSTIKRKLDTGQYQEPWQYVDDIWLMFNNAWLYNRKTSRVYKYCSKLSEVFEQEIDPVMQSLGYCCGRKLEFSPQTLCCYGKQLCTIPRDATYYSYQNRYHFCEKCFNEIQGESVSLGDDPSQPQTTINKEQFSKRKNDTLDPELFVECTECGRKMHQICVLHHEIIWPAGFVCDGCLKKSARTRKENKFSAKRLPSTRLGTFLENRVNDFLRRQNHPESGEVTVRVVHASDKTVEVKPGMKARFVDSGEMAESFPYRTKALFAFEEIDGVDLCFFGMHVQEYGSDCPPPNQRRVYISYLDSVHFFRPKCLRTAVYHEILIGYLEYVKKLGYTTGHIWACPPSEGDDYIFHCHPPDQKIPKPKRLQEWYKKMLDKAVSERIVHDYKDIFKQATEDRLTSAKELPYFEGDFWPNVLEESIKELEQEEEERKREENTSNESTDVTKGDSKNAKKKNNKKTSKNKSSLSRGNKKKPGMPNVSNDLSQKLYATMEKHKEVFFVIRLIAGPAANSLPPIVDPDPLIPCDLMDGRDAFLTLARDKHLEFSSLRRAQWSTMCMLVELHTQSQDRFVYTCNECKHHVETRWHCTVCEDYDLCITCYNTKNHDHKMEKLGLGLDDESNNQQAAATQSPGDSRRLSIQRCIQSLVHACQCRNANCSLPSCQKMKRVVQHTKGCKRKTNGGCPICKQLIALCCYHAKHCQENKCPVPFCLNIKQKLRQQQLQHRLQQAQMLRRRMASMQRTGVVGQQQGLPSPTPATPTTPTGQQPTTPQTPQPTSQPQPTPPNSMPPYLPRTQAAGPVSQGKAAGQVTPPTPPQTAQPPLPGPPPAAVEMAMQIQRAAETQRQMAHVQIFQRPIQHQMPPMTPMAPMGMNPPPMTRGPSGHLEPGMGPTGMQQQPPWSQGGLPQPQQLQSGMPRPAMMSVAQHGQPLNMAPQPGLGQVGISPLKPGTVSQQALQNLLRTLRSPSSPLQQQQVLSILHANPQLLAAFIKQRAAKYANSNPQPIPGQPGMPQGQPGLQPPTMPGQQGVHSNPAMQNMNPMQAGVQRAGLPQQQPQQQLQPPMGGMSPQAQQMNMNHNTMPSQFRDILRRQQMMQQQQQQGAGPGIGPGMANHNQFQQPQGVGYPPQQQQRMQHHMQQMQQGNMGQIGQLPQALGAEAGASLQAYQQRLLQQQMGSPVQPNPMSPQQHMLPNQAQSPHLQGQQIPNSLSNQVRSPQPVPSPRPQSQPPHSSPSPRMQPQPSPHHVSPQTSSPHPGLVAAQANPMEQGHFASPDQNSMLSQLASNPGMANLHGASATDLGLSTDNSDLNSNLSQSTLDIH

Compound	Dmax [%]	DC50 [nM]
Cc1cc2c(N3CCCc4nc(-c5ccc(C(=O)NCC#Cc6ccc7c(c6)N(C6CCC(=O)NC6=O)CCCC7)nc5)ncc43)cc(C3CCOCC3)cc2n(C)c1=O (centres unmarked) [Example B57, 5-(5-(1,3-dimethyl-2-oxo-7-(tetrahydro-2H-pyran-4-yl)-1,2-dihydroquinolin-5-yl)-5,6,7,8-tetrahydropyrido[3,2-d]pyrimidin-2-yl)-N-(3-(1-(2,6-dioxopiperidin-3-yl)-2,3,4,5-tetrahydro-1H-benzo[b]azepin-8-yl)prop-2-yn-1-yl) picolinamide]	< 20	> 1000
Cc1cc2c(N3CCN(C)c4nc(-c5ccc(C(=O)NCC#Cc6cc7c(C8CCC(=O)NC8=O)cccc7o6)nc5)ncc43)cccc2n(C)c1=O (centres unmarked) [Example B65, 5-(5-(1,3-dimethyl-2-oxo-1,2-dihydroquinolin-5-yl)-8-methyl-5,6,7,8-tetrahydropteridin-2-yl)-N-(3-(4-(2,6-dioxopiperidin-3-yl)benzofuran-2-yl)prop-2-yn-1-yl)picolinamide]	> 80	1 to 9.9
Cc1cc2c(N3CCCc4nc(-c5ccc(C(=O)NCC#Cc6ccc7occ(C8CCC(=O)NC8=O)c7c6)nc5)ncc43)nc(C3CCOCC3)cc2n(C)c1=O (centres unmarked) [Example B70, 5-(5-(1,3-dimethyl-2-oxo-7-(tetrahydro-2H-pyran-4-yl)-1,2-dihydro-1,6-naphthyridin-5-yl)-5,6,7,8-tetrahydropyrido[3,2-d]pyrimidin-2-yl)-N-(3-(3-(2,6-dioxopiperidin-3-yl)benzofuran-5-yl)prop-2-yn-1-yl)picolinamide]	60 to 79	1 to 9.9
Cc1nc2c(N3CCCc4nc(-c5ccc(C(=O)NCC#Cc6ccc7occ(C8CCC(=O)NC8=O)c7c6)nc5)ncc43)cc(C3CCOCC3)cc2n(C)c1=O (centres unmarked) [Example B78, 5-(5-(1,3-dimethyl-2-oxo-7-(tetrahydro-2H-pyran-4-yl)-1,2-dihydroquinoxalin-5-yl)-5,6,7,8-tetrahydropyrido[3,2-d]pyrimidin-2-yl)-N-(3-(3-(2,6-dioxopiperidin-3-yl)benzofuran-5-yl)prop-2-yn-1-yl)picolinamide]	< 20	> 1000
Cc1cc(=O)n(C)c2cc(C3CCOCC3)cc(N3CCCc4nc(-c5ccc(C(=O)NCC#Cc6ccc7occ(C8CCC(=O)NC8=O)c7c6)nc5)ncc43)c12 (centres unmarked) [Example B80, 5-(5-(1,4-dimethyl-2-oxo-7-(tetrahydro-2H-pyran-4-yl)-1,2-dihydroquinolin-5-yl)-5,6,7,8-tetrahydropyrido[3,2-d]pyrimidin-2-yl)-N-(3-(3-(2,6-dioxopiperidin-3-yl)benzofuran-5-yl)prop-2-yn-1-yl)picolinamide]	< 20	> 1000
Cc1cc2c(N3CCCc4nc(-c5ccc(C(=O)NCC#Cc6ccc7occ(C8(C)CCC(=O)NC8=O)c7c6)nc5)ncc43)cc(C3CCOCC3)cc2n(C)c1=O (centres unmarked) [Example B85, 5-(5-(1,3-dimethyl-2-oxo-7-(tetrahydro-2H-pyran-4-yl)-1,2-dihydroquinolin-5-yl)-5,6,7,8-tetrahydropyrido[3,2-d]pyrimidin-2-yl)-N-(3-(3-(3-methyl-2,6-dioxopiperidin-3-yl)benzofuran-5-yl)prop-2-yn-1-yl)picolinamide]	< 20	> 1000
Cc1cc2c(N3CCCc4nc(-c5ccc(C(=O)NCC#Cc6ccc7occ(C8CCC(=O)NC8=O)c7c6)nc5)ncc43)nc(N3CCC3)cc2n(C)c1=O (centres unmarked) [Example B86, 5-(5-(7-(azetidin-1-yl)-1,3-dimethyl-2-oxo-1,2-dihydro-1,6-naphthyridin-5-yl)-5,6,7,8-tetrahydropyrido[3,2-d]pyrimidin-2-yl)-N-(3-(3-(2,6-dioxopiperidin-3-yl)benzofuran-5-yl)prop-2-yn-1-yl)picolinamide]	> 80	1 to 9.9
Cc1cc2c(N3CCOc4cc(-c5ccc(C(=O)NCC#Cc6ccc7occ(C8CCC(=O)NC8=O)c7c6)nc5)c(F)cc43)cc(C(C)C)cc2n(C)c1=O (centres unmarked) [Example B91, N-(3-(3-(2,6-dioxopiperidin-3-yl)benzofuran-5-yl)prop-2-yn-1-yl)-5-(6-fluoro-4-(7-isopropyl-1,3-dimethyl-2-oxo-1,2-dihydroquinolin-5-yl)-3,4-dihydro-2H-benzo[b][1,4]oxazin-7-yl)picolinamide]	> 80	10 to 99
CCc1cc2c(cc(C)c(=O)n2C)c(-c2cccc3cc(-c4ccc(C(=O)NCC#Cc5ccc6occ(C7CCC(=O)NC7=O)c6c5)nc4)ncc23)n1 (centres unmarked) [Example B93, N-(3-(3-(2,6-dioxopiperidin-3-yl)benzofuran-5-yl)prop-2-yn-1-yl)-5-(8-(7-ethyl-1,3-dimethyl-2-oxo-1,2-dihydro-1,6-naphthyridin-5-yl)isoquinolin-3-yl)picolinamide]	60 to 79	1 to 9.9
Cc1cc2c(N3CCN(C)c4cc(-c5ccc(C(=O)NCC#Cc6cc7c(C8CCC(=O)NC8=O)cccc7o6)nc5)ncc43)cc(C(C)C)cc2n(C)c1=O (centres unmarked) [Example B95, N-(3-(4-(2,6-dioxopiperidin-3-yl)benzofuran-2-yl)prop-2-yn-1-yl)-5-(4-(7-isopropyl-1,3-dimethyl-2-oxo-1,2-dihydroquinolin-5-yl)-1-methyl-1,2,3,4-tetrahydropyrido[3,4-b]pyrazin-7-yl)picolinamide]	> 80	< 1
Cc1cc2c(N3CCCc4nc(-c5ccc(C(=O)NCC#Cc6cc7c(C89CC(C8)C(=O)NC9=O)cccc7o6)nc5)ncc43)cc(C3CCOCC3)cc2n(C)c1=O [Example B97, 5-(5-(1,3-dimethyl-2-oxo-7-(tetrahydro-2H-pyran-4-yl)-1,2-dihydroquinolin-5-yl)-5,6,7,8-tetrahydropyrido[3,2-d]pyrimidin-2-yl)-N-(3-(4-(2,4-dioxo-3-azabicyclo[3.1.1]heptan-1-yl)benzofuran-2-yl)prop-2-yn-1-yl)picolinamide]	< 20	100 to 999
Cc1cc2c(N3CCOc4cc(-c5ccc(C(=O)NCC#Cc6ccc7occ(C8CCC(=O)NC8=O)c7c6)nc5)c(F)cc43)cc(F)cc2n(C)c1=O (centres unmarked) [Example B100, N-(3-(3-(2,6-dioxopiperidin-3-yl)benzofuran-5-yl)prop-2-yn-1-yl)-5-(6-fluoro-4-(7-fluoro-1,3-dimethyl-2-oxo-1,2-dihydroquinolin-5-yl)-3,4-dihydro-2H-benzo[b][1,4]oxazin-7-yl) picolinamide]	> 80	1 to 9.9
Cc1cc2c(-c3cccc4cc(-c5ccc(C(=O)NCC#Cc6ccc7occ(C8CCC(=O)NC8=O)c7c6)nc5)ncc34)nc(N3CC(C)(O)C3)cc2n(C)c1=O (centres unmarked) [Example B101, N-(3-(3-(2,6-dioxopiperidin-3-yl)benzofuran-5-yl)prop-2-yn-1-yl)-5-(8-(7-(3-hydroxy-3-methylazetidin-1-yl)-1,3-dimethyl-2-oxo-1,2-dihydro-1,6-naphthyridin-5-yl)isoquinolin-3-yl)picolinamide]	> 80	1 to 9.9

More lines, now with the values ahead:

Dmax [%]	DC50 [nM]	Compound
> 80	1 to 9.9	Cc1cc(-c2ncc3c(n2)CCCN3c2cccc3c2cc(C)c(=O)n3C)cnc1C(=O)NCC#Cc1ccc2occ(C3CCC(=O)NC3=O)c2c1 (centres unmarked) [Example B45, 5-(5-(1,3-dimethyl-2-oxo-1,2-dihydroquinolin-5-yl)-5,6,7,8-tetrahydropyrido[3,2-d]pyrimidin-2-yl)-N-(3-(3-(2,6-dioxopiperidin-3-yl)benzofuran-5-yl)prop-2-yn-1-yl)-3-methylpicolinamide]
> 80	1 to 9.9	COc1cc(-c2ncc3c(n2)CCCN3c2cccc3c2cc(C)c(=O)n3C)cnc1C(=O)NCC#Cc1ccc2occ(C3CCC(=O)NC3=O)c2c1 (centres unmarked) [Example B50, 5-(5-(1,3-dimethyl-2-oxo-1,2-dihydroquinolin-5-yl)-5,6,7,8-tetrahydropyrido[3,2-d]pyrimidin-2-yl)-N-(3-(3-(2,6-dioxopiperidin-3-yl)benzofuran-5-yl)prop-2-yn-1-yl)-3-methoxypicolinamide]
> 80	< 1	CCC(=O)N1CCC(c2cc(N3CCCc4nc(-c5ccc(C(=O)NCC#Cc6ccc7occ(C8CCC(=O)NC8=O)c7c6)nc5)ncc43)c3cc(C)c(=O)n(C)c3c2)CC1 (centres unmarked) [Example B52, 5-(5-(1,3-dimethyl-2-oxo-7-(1-propionyl-piperidin-4-yl)-1,2-dihydroquinolin-5-yl)-5,6,7,8-tetrahydropyrido[3,2-d]pyrimidin-2-yl)-N-(3-(3-(2,6-dioxopiperidin-3-yl)benzofuran-5-yl)prop-2-yn-1-yl)picolinamide]
> 80	1 to 9.9	Cc1cc(-c2ncc3c(n2)CCCN3c2nc(N3CCOCC3)cc3c2cc(C)c(=O)n3C)cnc1C(=O)NCC#Cc1cc2c(C3CCC(=O)NC3=O)cccc2o1 (centres unmarked) [Example B89, 5-(5-(1,3-dimethyl-7-morpholino-2-oxo-1,2-dihydro-1,6-naphthyridin-5-yl)-5,6,7,8-tetrahydropyrido[3,2-d]pyrimidin-2-yl)-N-(3-(4-(2,6-dioxopiperidin-3-yl)benzofuran-2-yl)prop-2-yn-1-yl)-3-methylpicolinamide]
> 80	1 to 9.9	Cc1cc2c(N3CCOc4cc(-c5ccc(C(=O)NCC#Cc6ccc7occ(C8CCC(=O)NC8=O)c7c6)nc5)c(F)cc43)cc(C3CCOCC3)cc2n(C)c1=O (centres unmarked) [Example B99, 5-(4-(1,3-dimethyl-2-oxo-7-(tetrahydro-2H-pyran-4-yl)-1,2-dihydroquinolin-5-yl)-6-fluoro-3,4-dihydro-2H-benzo[b][1,4]oxazin-7-yl)-N-(3-(3-(2,6-dioxopiperidin-3-yl)benzofuran-5-yl)prop-2-yn-1-yl)picolinamide]
> 80	1 to 9.9	Cc1cc(N2CCN(C)c3nc(-c4ccc(C(=O)NCC#Cc5cc6c(C7CCC(=O)NC7=O)cccc6o5)nc4)ncc32)c2cc(C)c(=O)n(C)c2c1 (centres unmarked) [Example B104, N-(3-(4-(2,6-dioxopiperidin-3-yl)benzofuran-2-yl)prop-2-yn-1-yl)-5-(8-methyl-5-(1,3,7-trimethyl-2-oxo-1,2-dihydroquinolin-5-yl)-5,6,7,8-tetrahydropteridin-2-yl)picolinamide]
